Reference: patent publication US12478626B2, “Kinase mutants and uses thereof” (SIB Swiss Institute of Bioinformatics, priority 2017, dated 2025)

Target: T1, wild type Zap-70 (Homo sapiens, UniProt P43403)
T1 sequence (P43403 1-619): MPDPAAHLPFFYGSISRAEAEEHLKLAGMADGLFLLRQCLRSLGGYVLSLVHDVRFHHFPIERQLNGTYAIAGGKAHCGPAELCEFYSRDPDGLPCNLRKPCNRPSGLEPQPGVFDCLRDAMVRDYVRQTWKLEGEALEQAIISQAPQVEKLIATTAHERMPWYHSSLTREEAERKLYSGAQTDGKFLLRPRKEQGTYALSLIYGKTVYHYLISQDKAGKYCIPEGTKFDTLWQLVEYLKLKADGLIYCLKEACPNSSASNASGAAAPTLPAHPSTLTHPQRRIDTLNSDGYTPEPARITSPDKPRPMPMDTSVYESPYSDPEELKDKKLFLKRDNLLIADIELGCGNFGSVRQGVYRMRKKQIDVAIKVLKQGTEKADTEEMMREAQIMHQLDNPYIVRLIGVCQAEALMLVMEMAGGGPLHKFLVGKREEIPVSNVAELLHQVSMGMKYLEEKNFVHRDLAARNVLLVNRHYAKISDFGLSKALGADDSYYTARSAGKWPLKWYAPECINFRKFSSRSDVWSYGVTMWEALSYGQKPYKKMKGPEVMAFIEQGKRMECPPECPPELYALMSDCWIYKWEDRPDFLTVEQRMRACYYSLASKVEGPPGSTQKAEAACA
Test: not given
Conditions: Karaman et al.; cited from earlier work

Row | Compound | inhibitory effect on the wild type Zap-70
1 | CS(=O)(=O)CCNCc1ccc(-c2ccc3ncnc(Nc4ccc(OCc5cccc(F)c5)c(Cl)c4)c3c2)o1 [Lapatinib] | no or little inhibitory effect

Test system: Zap-70 mutants in P116 cells
Test: Inhibition of IL-2 production by TKI at two concentrations, Zap-70 mutants versus WT
Conditions: 500 nM and 1 or […], 24 h and 48 h

Row | Compound | inhibition in production of IL-2 in mutants compared to Zap-70 WT
2 | Crizotinib | increase of cell response
3 | C=CC(=O)Nc1cccc(Nc2nc(Nc3ccc(N4CCN(C(C)=O)CC4)cc3OC)ncc2C(F)(F)F)c1 [CO-1686] | No significantly different inhibition
4 | C#Cc1cccc(Nc2ncnc3cc(OCCOC)c(OCCOC)cc23)c1 [Erlotinib] | higher in mutants than WT
5 | CCOc1cc2ncc(C#N)c(Nc3ccc(OCc4ccccn4)c(Cl)c3)c2cc1NC(=O)/C=C/CN(C)C [Neratinib] | No significantly different inhibition
6 | CS(=O)(=O)CCNCc1ccc(-c2ccc3ncnc(Nc4ccc(OCc5cccc(F)c5)c(Cl)c4)c3c2)o1 [Lapatinib] | increase of cell response
